Assay results taken from US20240228468A1, “N-(6-((OCTAHYDROCYCLOPENTA[C]PYRROL-5-YI)AMINO)PYRIDAZIN-3-YL)PHENYL)CARBOXAMIDE AND (6- ((OCTAHYDROCYCLOPENTA[C]PYRROL-5-YL)AMINO)PYRIDAZIN-3-YL)BENZAMIDE DERIVATIVES AS MACHR M4 ANTAGONISTS FOR THE TREATMENT OF NEURODEGENERATIVE DISORDERS” (Vanderbilt University, priority 2021, published 2024).

Molecular target: T1, Human M4 (Homo sapiens, UniProt P08173)
T1 construct: expressed in transfected cells; host or cells: CHO-K1 (ATCC), co-transfected with chimeric G protein Gqi5
T1 sequence (P08173 1-479): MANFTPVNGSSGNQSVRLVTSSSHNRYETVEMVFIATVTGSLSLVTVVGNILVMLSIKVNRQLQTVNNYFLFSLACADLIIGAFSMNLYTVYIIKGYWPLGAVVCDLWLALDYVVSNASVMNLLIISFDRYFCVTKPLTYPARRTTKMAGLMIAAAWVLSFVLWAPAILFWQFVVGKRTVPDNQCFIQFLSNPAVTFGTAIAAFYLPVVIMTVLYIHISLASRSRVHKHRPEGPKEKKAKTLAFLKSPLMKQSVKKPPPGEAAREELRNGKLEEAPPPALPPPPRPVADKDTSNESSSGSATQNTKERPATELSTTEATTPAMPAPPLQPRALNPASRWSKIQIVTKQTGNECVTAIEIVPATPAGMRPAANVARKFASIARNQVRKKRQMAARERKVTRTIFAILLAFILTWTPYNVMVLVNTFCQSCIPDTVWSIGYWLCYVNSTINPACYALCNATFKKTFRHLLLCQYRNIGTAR
Assay: mAChR M4 cell-based functional assay (calcium flux, antagonism of EC80 acetylcholine response)
Details: M4/Gqi5/CHO-K1 cells; for remaining activity at 30 µM: % ACh maximum at 30 μM, read-out: Human M4 Emin (% ACh maximum at 30 μM); for IC50: concentration-dependent decrease of the response elicited by an EC80 concentration of acetylcholine
Description: Human or rat M4 cDNA, along with the chimeric G protein Gqi5, were transfected into Chinese hamster ovary (CHO-K1) cells purchased from the American Type Culture Collection using Lipofectamine2000. M4/Gqi5/CHO cells were grown in Ham's F-12 medium containing 10% heat-inactivated fetal bovine serum (FBS), 20 mM HEPES, 500 μg/mL G418 sulfate, and 200 μg/mL Hygromycin B.
For high throughput measurement of agonist-evoked increases in intracellular calcium, CHO-K1 cells stably expressing muscarinic receptors were plated in growth medium lacking G418 and hygromycin at 15,000 cells/20 μL/well in Greiner 384-well black-walled, tissue culture (TC)-treated, clear-bottom plates (VWR). Cells were incubated overnight at 37° C. and 5% CO2. The next day, cells were washed using an ELX 405 (BioTek) with assay buffer; the final volume was then aspirated to 20 μL. Next, 20 μL of a 2.3 μM stock of Fluo-4/acetoxymethyl ester (Invitrogen, Carlsbad, CA), prepared as a 2.3 mM stock in DMSO and mixed in a 1:1 ratio with 10% (w/v) Pluronic F-127 and diluted in assay buffer, was added to the wells and the cell plates were incubated for 50 min at 37° C. and 5% CO2. Dye was removed by washing with the ELX 405 and the final volume was aspirated to 20 μL. Compound master plates were formatted in a 10 point concentration-response curve (CRC) format (1:3 dilutions) in 100% DMSO with a starting concentration of 10 or 1 mM using a BRAVO liquid handler (Agilent). Test compound CRCs were then transferred to daughter plates (240 nL) using the Echo acoustic plate reformatter (Labcyte, Sunnyvale, CA) and then diluted into assay buffer (40 μL) to a 2× stock using a Thermo Fisher Combi (Thermo Fisher Scientific, Waltham, MA).
Calcium flux was measured using the Functional Drug Screening System (FDSS) 6000 or 7000 (Hamamatsu Corporation, Tokyo, Japan) as an increase in the fluorescent static ratio. Compounds were applied to cells (20 μL, 2×) using the automated system of the FDSS at 2 seconds into the protocol and the data were collected at 1 Hz. At 143 s, 10 μL of an EC20 concentration of the muscarinic receptor agonist acetylcholine was added (5×), followed by the addition of 12 μL of an EC80 concentration of acetylcholine at the 268 s time point (5×). Agonist activity was analyzed as a concentration-dependent increase in calcium mobilization upon compound addition. Positive allosteric modulator activity was analyzed as a concentration-dependent increase in the EC20 acetylcholine response. Antagonist activity was analyzed as a concentration-dependent decrease in the EC80 acetylcholine response; for the purposes of the tables herein, an IC50 (inhibitory concentration 50) was calculated as a concentration-dependent decrease of the response elicited by an EC80 concentration of acetylcholine. Concentration-response curves were generated using a four-parameter logistical equation in XLFit curve fitting software (IDBS, Bridgewater, NJ) for Excel (Microsoft, Redmond, WA) or Prism (GraphPad Software, Inc., San Diego, CA) or the Dotmatics software platform (Dotmatics, Bishop's Stortford, UK).
Compounds were synthesized as described above. Activity (IC50 and Emin) was determined in the mAChR M4 cell-based functional assay as described above and the data are shown in Table 2.

remaining activity at 30 µM [%]	IC50 [nM]	Structure (SMILES)
3	6.8	O=C(Nc1ccc(-c2ccc(N[C@H]3C[C@@H]4CN(CC5CCOCC5)C[C@@H]4C3)nn2)cc1)C1CC1 [Compound A26, N-(4-(6-(((3aR,5s,6aS)-2-((tetrahydro-2H-pyran-4-yl)methyl)octahydrocyclopenta[c]pyrrol-5-yl)amino)pyridazin-3-yl)phenyl)cyclopropanecarboxamide]
3	3.9	O=C(NC1CC1)c1ccc(-c2ccc(N[C@H]3C[C@@H]4CN(CC5CCOCC5)C[C@@H]4C3)nn2)cc1 [Compound A27, N-cyclopropyl-4-(6-(((3aR,5s,6aS)-2-((tetrahydro-2H-pyran-4-yl)methyl)octahydrocyclopenta[c]pyrrol-5-yl)amino)pyridazin-3-yl)benzamide]
3	25	O=C(NC1CC1)c1cccc(-c2ccc(N[C@H]3C[C@@H]4CN(CC5CCOCC5)C[C@@H]4C3)nn2)c1 [Compound A28, N-cyclopropyl-3-(6-(((3aR,5s,6aS)-2-((tetrahydro-2H-pyran-4-yl)methyl)octahydrocyclopenta[c]pyrrol-5-yl)amino)pyridazin-3-yl)benzamide]
3	13	O=C(Nc1cccc(-c2ccc(N[C@H]3C[C@@H]4CN(CC5CCOCC5)C[C@@H]4C3)nn2)c1)C1CC1 [Compound A30, N-(3-(6-(((3aR,5s,6aS)-2-((tetrahydro-2H-pyran-4-yl)methyl)octahydrocyclopenta[c]pyrrol-5-yl)amino)pyridazin-3-yl)phenyl)cyclopropanecarboxamide]
3	22	[2H]C([2H])(C1CCOCC1)N1C[C@H]2C[C@H](Nc3ccc(-c4cccc(C(=O)NC5CC5)c4)nn3)C[C@H]2C1 [Compound A33, N-cyclopropyl-3-(6-(((3aR,5s,6aS)-2-((tetrahydro-2H-pyran-4-yl)methyl-d2)octahydrocyclopenta[c]pyrrol-5-yl)amino)pyridazin-3-yl)benzamide]
4	1.1	[2H]C([2H])(C1CCOCC1)N1C[C@H]2C[C@H](Nc3ccc(-c4ccc(C(=O)NC5CC5)cc4)nn3)C[C@H]2C1 [Compound A34, N-cyclopropyl-4-(6-(((3aR,5s,6aS)-2-((tetrahydro-2H-pyran-4-yl)methyl-d2)octahydrocyclopenta[c]pyrrol-5-yl)amino)pyridazin-3-yl)benzamide]
4	1.2	[2H]C([2H])(C1CCOCC1)N1C[C@H]2C[C@H](Nc3ccc(-c4ccc(NC(=O)C5CC5)cc4)nn3)C[C@H]2C1 [Compound A35, N-(4-(6-(((3aR,5s,6aS)-2-((tetrahydro-2H-pyran-4-yl)methyl-d2)octahydrocyclopenta[c]pyrrol-5-yl)amino)pyridazin-3-yl)phenyl)cyclopropanecarboxamide]
3	3.1	CCC(=O)Nc1ccc(-c2ccc(N[C@H]3C[C@@H]4CN(CC5CCOCC5)C[C@@H]4C3)nn2)cc1 [Compound A39, N-(4-(6-(((3aR,5s,6aS)-2-((tetrahydro-2H-pyran-4-yl)methyl)octahydrocyclopenta[c]pyrrol-5-yl)amino)pyridazin-3-yl)phenyl)propionamide]
5	12	CNC(=O)c1cccc(-c2ccc(N[C@H]3C[C@@H]4CN(CC5CCOCC5)C[C@@H]4C3)nn2)c1 [Compound A41, N-methyl-3-(6-(((3aR,5s,6aS)-2-((tetrahydro-2H-pyran-4-yl)methyl)octahydrocyclopenta[c]pyrrol-5-yl)amino)pyridazin-3-yl)benzamide]
4	13	CCNC(=O)c1cccc(-c2ccc(N[C@H]3C[C@@H]4CN(CC5CCOCC5)C[C@@H]4C3)nn2)c1 [Compound A43, N-ethyl-3-(6-(((3aR,5s,6aS)-2-((tetrahydro-2H-pyran-4-yl)methyl)octahydrocyclopenta[c]pyrrol-5-yl)amino)pyridazin-3-yl)benzamide]

Second part, the molecule before the results:

Structure (SMILES)	remaining activity at 30 µM [%]	IC50 [nM]
CC(=O)Nc1cccc(-c2ccc(N[C@H]3C[C@@H]4CN(CC5CCOCC5)C[C@@H]4C3)nn2)c1 [Compound A29, N-(3-(6-(((3aR,5s,6aS)-2-((tetrahydro-2H-pyran-4-yl)methyl)octahydrocyclopenta[c]pyrrol-5-yl)amino)pyridazin-3-yl)phenyl)acetamide]	3	34
[2H]C([2H])(C1CCOCC1)N1C[C@H]2C[C@H](Nc3ccc(-c4cccc(NC(C)=O)c4)nn3)C[C@H]2C1 [Compound A31, N-(3-(6-(((3aR,5s,6aS)-2-((tetrahydro-2H-pyran-4-yl)methyl-d2)octahydrocyclopenta[c]pyrrol-5-yl)amino)pyridazin-3-yl)phenyl)acetamide]	3	11
[2H]C([2H])(C1CCOCC1)N1C[C@H]2C[C@H](Nc3ccc(-c4cccc(NC(=O)C5CC5)c4)nn3)C[C@H]2C1 [Compound A32, N-(3-(6-(((3aR,5s,6aS)-2-((tetrahydro-2H-pyran-4-yl)methyl-d2)octahydrocyclopenta[c]pyrrol-5-yl)amino)pyridazin-3-yl)phenyl)cyclopropanecarboxamide]	3	16
NC(=O)c1ccc(-c2ccc(N[C@H]3C[C@@H]4CN(CC5CCOCC5)C[C@@H]4C3)nn2)c(F)c1 [Compound A36, 3-fluoro-4-(6-(((3aR,5s,6aS)-2-((tetrahydro-2H-pyran-4-yl)methyl)octahydrocyclopenta[c]pyrrol-5-yl)amino)pyridazin-3-yl)benzamide]	4	5.1
CN(C)C(=O)c1ccc(-c2ccc(N[C@H]3C[C@@H]4CN(CC5CCOCC5)C[C@@H]4C3)nn2)c(F)c1 [Compound A37, 3-fluoro-N,N-dimethyl-4-(6-(((3aR,5s,6aS)-2-((tetrahydro-2H-pyran-4-yl)methyl)octahydrocyclopenta[c]pyrrol-5-yl)amino)pyridazin-3-yl)benzamide]	5	14
CCN(CC)C(=O)c1ccc(-c2ccc(N[C@H]3C[C@@H]4CN(CC5CCOCC5)C[C@@H]4C3)nn2)c(F)c1 [Compound A38, N,N-diethyl-3-fluoro-4-(6-(((3aR,5s,6aS)-2-((tetrahydro-2H-pyran-4-yl)methyl)octahydrocyclopenta[c]pyrrol-5-yl)amino)pyridazin-3-yl)benzamide]	4	48
[2H]C([2H])(C1CCOCC1)N1C[C@H]2C[C@H](Nc3ccc(-c4ccc(NC(=O)CC)cc4)nn3)C[C@H]2C1 [Compound A40, N-(4-(6-(((3aR,5s,6aS)-2-((tetrahydro-2H-pyran-4-yl)methyl-d2)octahydrocyclopenta[c]pyrrol-5-yl)amino)pyridazin-3-yl)phenyl)propionamide]	3	2.5
